Data from patent publication US4166810A, “Derivatives of 4-desacetyl VLB C-3 carboxyhydrazide” (priority 1978, dated 1979).
Read-outs that look alike come from different tables or passages of the source.

Legend:
[1] = system: experimental malignancies; conditions: animals; cited from earlier work
[2] = system: Ridgeway osteogenic sarcoma (ROS); experiment: Transplanted tumor growth inhibition in mice, Ridgeway osteogenic sarcoma (ROS); assay type: in vivo
Protocol: (§1) The compounds of this invention are active in inhibiting the growth of transplanted tumors in mice and/or in prolonging the life of tumor-innoculated mice. […] The size of the tumor was measured at 7 or 11 days where the drug inhibited tumor growth. Where life-prolongation was concerned, extra life span of treated animals over that of control animals was determined.
(§2) The following table--Table 1--gives the results of experiments in which mice bearing transplanted tumors were treated successfully with a compound of this invention. In the table, column 1 gives the name of the compound; column 2, the transplanted tumor; column 3, the dose level or dose level range and the number of days the dosage was administered; and column 4, the percent inhibition of tumor growth or percent prolongation of survival time, e.g., B16 (ROS is an abbreviation for Ridgeway osteogenic sarcoma; GLS for Gardner lymphosarcoma; P 1534 (J) for a leukemia and B16 for a malignant melanoma.

[3] = system: Gardner lymphosarcoma (GLS); experiment: Transplanted tumor growth inhibition in mice, Gardner lymphosarcoma (GLS); assay type: in vivo
Protocol: as §1, §2

[4] = Mus musculus, 168 h, 0.125 mg/kg × 10 days, measured at 7 days, read-out: Percent Inhibition (of tumor growth), 7 days
[5] = Mus musculus, 168 h, 0.25 mg/kg × 10 days, measured at 7 days, read-out: Percent Inhibition (of tumor growth), 7 days
[6] = Mus musculus, 168 h, 0.5 mg/kg × 10 days, measured at 7 days, read-out: Percent Inhibition (of tumor growth), 7 days
[7] = Mus musculus, 264 h, 0.125 mg/kg × 10 days, measured at 11 days, read-out: Percent Inhibition (of tumor growth), 11 days
[8] = Mus musculus, 264 h, 0.25 mg/kg × 10 days, measured at 11 days, read-out: Percent Inhibition (of tumor growth), 11 days
[9] = 0.25 mg/kg × 10 days, measured at 11 days
[10] = 0.5 mg/kg × 10 days, measured at 7 days
[11] = 0.5 mg/kg × 10 days, measured at 11 days
[12] = Mus musculus, 168 h, 0.2 mg/kg × 9 days, 7 days, read-out: Percent Inhibition (of tumor growth), 7 days

| Molecule | activity in the treatment of experimental malignancies [1] | inhibition in vivo at 0.125 mg/kg [3, 4] [%] | inhibition in vivo at 0.25 mg/kg [3, 5] [%] | inhibition in vivo at 0.125 mg/kg [3, 7] [%] | Percent Inhibition (of tumor growth), 7 days [3, 10] | Percent Inhibition (of tumor growth), 11 days [3, 11] | also measured |
| --- | --- | --- | --- | --- | --- | --- | --- |
| CC[C@]12CN3CCc4c([nH]c5ccccc45)[C@@](C(=O)OC)(c4cc5c(cc4OC)N(C=O)[C@H]4[C@@](O)(C(=O)OC)[C@H](OC(C)=O)[C@]6(CC)C=CCN7CC[C@]54[C@@H]76)C[C@@H](C3)[C@H]1O2 [leuroformine] | found active in the treatment of experimental malignancies in animals | – | – | – | – | – | – |
| CCC1(O)CC2CN(CCc3c([nH]c4ccccc34)C(C(=O)OC)(c3cc4c(cc3OC)N(C)C3C(O)(C(=O)OC)CC5(CC)C=CCN6CCC43C65)C2)C1 (stereo not shown) [4-desacetoxyvinblastine] | found active in the treatment of experimental malignancies in animals | – | – | – | – | – | – |
| CCC1CC2CN(CCc3c([nH]c4ccccc34)C(C(=O)OC)(c3cc4c(cc3OC)N(C)C3C(O)(C(=O)OC)C(OC(C)=O)C5(CC)C=CCN6CCC43C65)C2)C1 (stereo not shown) [deoxy VLB "A"] | found active in the treatment of experimental malignancies in animals | – | – | – | – | – | – |
| CCC1(O)CC2CN(CCc3c([nH]c4ccccc34)C(C(=O)OC)(c3cc4c(cc3OC)N(C)C3C(O)(C(=O)NN=C(C)C)C(O)C5(CC)C=CCN6CCC43C65)C2)C1 (stereo not shown) [4-Desacetyl VLB C-3 N^2-isopropylidenecarboxhydrazide] | – | – | – | – | – | – | Percent Inhibition (of tumor growth), 7 days ([2]; 0.05 mg/kg × 10 days): 33%; Percent Inhibition (of tumor growth), 7 days ([2]; 0.1 mg/kg × 10 days): 42%; Percent Inhibition (of tumor growth), 7 days ([2]; 0.15 mg/kg × 10 days): 74%; Percent Inhibition (of tumor growth), 7 days ([2]; 0.2-1.0 mg/kg × 10 days): Toxic |
| CCC1(O)CC2CN(CCc3c([nH]c4ccccc34)C(C(=O)OC)(c3cc4c(cc3OC)N(C)C3C(O)(C(=O)NNCCOC(C)=O)C(O)C5(CC)C=CCN6CCC43C65)C2)C1 (stereo not drawn) [4-desacetyl VLB C-3 N^2-(β-acetoxy)ethylcarboxhydrazide] | – | 74 | 100 | 26 | – | – | inhibition in vivo at 0.5 mg/kg [3, 6]: 100%; inhibition in vivo at 0.25 mg/kg [3, 8]: 73%; inhibition in vivo at 0.5 mg/kg ([3]; Mus musculus, 264 h, 0.5 mg/kg × 10 days, measured at 11 days, read-out: Percent Inhibition (of tumor growth), 11 days): 100% |
| CCNNC(=O)C1(O)C(O)C2(CC)C=CCN3CCC4(c5cc(C6(C(=O)OC)CC7CN(CCc8c6[nH]c6ccccc86)CC(O)(CC)C7)c(OC)cc5N(C)C14)C32 (stereo not shown) [4-Desacetyl VLB C-3 N^2-ethylcarboxhydrazide] | – | – | 100 | – | Toxic | Toxic | Percent Inhibition (of tumor growth), 11 days [3, 9]: Toxic |
| CC[C@]12CN3CCc4c([nH]c5ccccc45)[C@@](C(=O)OC)(c4cc5c(cc4OC)N(C)[C@H]4[C@@](O)(C(=O)OC)[C@H](OC(C)=O)[C@]6(CC)C=CCN7CC[C@]54[C@@H]76)C[C@H](C3)[C@H]1O2 [leurosine] | found active in the treatment of experimental malignancies in animals | – | – | – | – | – | – |
| leurosidine | found active in the treatment of experimental malignancies in animals | – | – | – | – | – | – |
| CCC1(O)CC2CN(CCc3c([nH]c4ccccc34)C(C(=O)OC)(c3cc4c(cc3OC)N(C)C3C(O)(C(=O)NNCCO)C(O)C5(CC)C=CCN6CCC43C65)C2)C1 (stereo not drawn) [4-Desacetyl VLB C-3 N^2-(β-hydroxy)ethylcarboxhydrazide] | – | 77 | 100 | 37 | Toxic | Toxic | Percent Inhibition (of tumor growth), 7 days ([2]; 0.2 mg/kg × 10 days): 0%; Percent Inhibition (of tumor growth), 7 days ([2]; 0.3 mg/kg × 10 days): 14%; Percent Inhibition (of tumor growth), 7 days ([2]; 0.5 mg/kg × 10 days): Toxic; inhibition in vivo at 0.1 mg/kg ([3]; Mus musculus, 168 h, 0.1 mg/kg × 9 days, 7 days, read-out: Percent Inhibition (of tumor growth), 7 days): 0%; inhibition in vivo at 0.2 mg/kg [3, 12]: 100%; inhibition in vivo at 0.3 mg/kg ([3]; Mus musculus, 168 h, 0.3 mg/kg × 7 days, measured at 7 days, read-out: Percent Inhibition (of tumor growth), 7 days): 20%; inhibition in vivo at 0.3 mg/kg ([3]; Mus musculus, 168 h, 0.3 mg/kg × 9 days, 7 days, read-out: Percent Inhibition (of tumor growth), 7 days): 17%; inhibition in vivo at 0.5 mg/kg ([3]; Mus musculus, 168 h, 0.5 mg/kg × 7 days, measured at 7 days, read-out: Percent Inhibition (of tumor growth), 7 days): 90%; inhibition in vivo at 0.25 mg/kg [3, 8]: 40% |
| VLB C-3 N^2 -(β-acetoxy)ethyl-carboxhydrazide | – | – | – | – | 100% | 87% | Percent Inhibition (of tumor growth), 7 days ([3]; 0.125 mg/kg × 10 days, measured at 7 days): 36%; Percent Inhibition (of tumor growth), 11 days ([3]; 0.125 mg/kg × 10 days, measured at 11 days): 35%; Percent Inhibition (of tumor growth), 7 days ([3]; 0.25 mg/kg × 10 days, measured at 7 days): 74%; Percent Inhibition (of tumor growth), 11 days [3, 9]: 55% |
| CCC1(O)CN2CCc3c([nH]c4ccccc34)C(C(=O)OC)(c3cc4c(cc3OC)N(C)C3C(O)(C(=O)OC)CC5(CC)C=CCN6CCC43C65)CC(C2)C1O (stereo not shown) [4-desacetoxy-3'-hydroxyvinblastine] | found active in the treatment of experimental malignancies in animals | – | – | – | – | – | – |
| CCC1(O)CN2CCc3c([nH]c4ccccc34)C(C(=O)OC)(c3cc4c(cc3OC)N(C)C3C(O)(C(=O)OC)C(OC(C)=O)C5(CC)C=CCN6CCC43C65)CC(C2)C1O (stereo not shown) [vincadioline] | found active in the treatment of experimental malignancies in animals | – | – | – | – | – | – |
| CCOC(=O)NNC(=O)C1(O)C(O)C2(CC)C=CCN3CCC4(c5cc(C6(C(=O)OC)CC7CN(CCc8c6[nH]c6ccccc86)CC(O)(CC)C7)c(OC)cc5N(C)C14)C32 (stereo not shown) [4-Desacetyl VLB C-3 N^2-ethylcarbazylcarboxhydrazide] | – | – | – | – | – | – | Percent Inhibition (of tumor growth), 7 days ([2]; 0.2 mg/kg × 10 days): 66%; Percent Inhibition (of tumor growth), 7 days ([2]; 0.4 mg/kg × 10 days): Toxic; inhibition in vivo at 0.2 mg/kg ([3]; Mus musculus, 168 h, 0.2 mg/kg × 7 days, measured at 7 days, read-out: Percent Inhibition (of tumor growth), 7 days): 100%; inhibition in vivo at 0.4 mg/kg ([3]; Mus musculus, 168 h, 0.4 mg/kg × 7 days, measured at 7 days, read-out: Percent Inhibition (of tumor growth), 7 days): 93% |
| CCC1(O)CC2CN(CCc3c([nH]c4ccccc34)C(C(=O)OC)(c3cc4c(cc3OC)N(C)C3C(O)(C(=O)NNC)C(O)C5(CC)C=CCN6CCC43C65)C2)C1 (stereo not shown) [4-Desacetyl VLB C-3 N^2-methylcarboxhydrazide] | – | 83 | – | 53 | – | – | Percent Inhibition (of tumor growth), 7 days ([3]; 0.25-0.5 mg/kg × 10 days, measured at 7 days): Toxic; Percent Inhibition (of tumor growth), 11 days ([3]; 0.25-0.5 mg/kg × 10 days, measured at 11 days): Toxic |
| CCCC(=O)NNC(=O)C1(O)C(O)C2(CC)C=CCN3CCC4(c5cc(C6(C(=O)OC)CC7CN(CCc8c6[nH]c6ccccc86)CC(O)(CC)C7)c(OC)cc5N(C)C14)C32 (stereo not shown) [4-desacetyl VLB C-3 N^2-butyrylcarboxhydrazide] | – | 100 | 100 | 100 | – | Toxic | inhibition in vivo at 0.5 mg/kg [3, 6]: 64%; inhibition in vivo at 0.25 mg/kg [3, 8]: 100% |
| CCC1(O)CC2CN(CCc3c([nH]c4ccccc34)C(C(=O)OC)(c3cc4c(cc3OC)N(C)C3C(O)(C(=O)NN(C)C)C(O)C5(CC)C=CCN6CCC43C65)C2)C1 (stereo not shown) [4-Desacetyl VLB C-3 N^2,N^2-dimethylcarboxhydrazide] | – | 100 | 100 | 93 | Toxic | Toxic | – |
| C=NNC(=O)C1(O)C(O)C2(CC)C=CCN3CCC4(c5cc(C6(C(=O)OC)CC7CN(CCc8c6[nH]c6ccccc86)CC(O)(CC)C7)c(OC)cc5N(C)C14)C32 (stereo not shown) [4-Desacetyl VLB C-3 N^2-methylidenecarboxhydrazide] | – | 91 | 100 | 91 | Toxic | Toxic | inhibition in vivo at 0.25 mg/kg [3, 8]: 100% |
| CC=NNC(=O)C1(O)C(O)C2(CC)C=CCN3CCC4(c5cc(C6(C(=O)OC)CC7CN(CCc8c6[nH]c6ccccc86)CC(O)(CC)C7)c(OC)cc5N(C)C14)C32 (stereo not shown) [4-Desacetyl VLB C-3 N^2-ethylidenecarboxhydrazide] | – | – | – | – | – | – | Percent Inhibition (of tumor growth), 7 days ([2]; 0.2 mg/kg × 9 days): 100%; Percent Inhibition (of tumor growth), 7 days ([2]; 0.4 mg/kg × 9 days): Toxic; Percent Inhibition (of tumor growth), 7 days ([3]; 0.4 mg/kg × 9 days, 7 days): Toxic; inhibition in vivo at 0.2 mg/kg [3, 12]: 100% |
| CCC1(O)CC2CN(CCc3c([nH]c4ccccc34)C(C(=O)OC)(c3cc4c(cc3OC)N(C)C3C(O)(C(=O)NNC(=O)c5ccccc5)C(O)C5(CC)C=CCN6CCC43C65)C2)C1 (stereo not shown) [4-Desacetyl VLB C-3 N^2-benzoylcarboxhydrazide] | – | 76 | 100 | 45 | Toxic | Toxic | Percent Inhibition (of tumor growth), 11 days [3, 9]: Toxic |
